From US20260070919A1, “CRYSTAL FORM OF FIVE-MEMBERED AND SIX-MEMBERED HETEROCYCLIC COMPOUND, PREPARATION METHOD THEREFOR, AND USE THEREOF” (BEIJING MAXINOVEL PHARMACEUTICALS CO., LTD., priority 2022, published 2026)

What was measured:
Type in all cases: physicochemical
[1] = Dynamic vapor sorption (DVS); details: for weight gain from 0% RH to 95% RH (moisture absorption): 25° C., weight percentage
Experimental: (§1) A sample of crystal form I of the compound represented by formula 1 (10 mg) was weighed, and dried for 60 minutes at a temperature of 25° C. and a humidity of 0% RH. The moisture absorption characteristics of the sample were tested as the humidity changed from 0% RH to 95% RH, and the desorption characteristics of the sample were tested as the humidity changed from 95% RH to 0% RH. The humidity change in each step was 5% RH, with an equilibrium criterion of a weight change rate of less than 0.01%/min within 5 minutes and a maximum equilibration time of 2 hours.
as §1, with “II” for “I”
as §1, with “III” for “I”

[2] = Stability test (influencing factors and accelerated conditions; HPLC, appearance, XRPD, DSC)
Experimental: Appropriate amounts of crystal form II and crystal form III of the compound represented by formula 1 were accurately weighed into 20 mL colorless transparent glass vials, which were placed under corresponding influencing factors (high temperature at 60° C., high humidity of 92.5% RH) and accelerated conditions (40° C./75% RH) respectively. After 1 week and 2 weeks, the samples were removed for HPLC analysis to determine the content and related substances, thereby evaluating the chemical stability of crystal form II and crystal form III. The samples were also characterized by appearance, XRPD, and DSC to assess the physical stability of the two crystal forms. Additionally, samples of crystal form II and crystal form III were accurately weighed into 20 mL colorless transparent glass vials, which were tightly sealed and stored in a −20° C. freezer as standard samples for HPLC analysis.

[3] = XRPD re-characterization of the precipitated sample after days
Experimental: 20 mg of the compound represented by formula 1 was weighed into a glass vial, which was placed in a 50° C. water bath with a rotational speed of 400 rpm. 90 times the volume of ethyl acetate as good solvent was added to the vial, and the mixture was heated to obtain a clarified solution, which was maintained at the same temperature for 15 minutes. 70 times the volume of n-heptane as anti-solvent was slowly added dropwise thereto under stirring to precipitate a solid, and the mixture was stirred for another 10 minutes. A sample was taken and centrifuged, naturally dried, and characterized by XRPD as crystal form II.
Following the same operational procedure as in method 3, crystal form II was also obtained by using the good solvent and anti-solvent listed in the table below.
Method: An appropriate amount of sample was taken and spread evenly on a single-crystal silicon wafer, and XRPD testing was conducted at room temperature. The specific experimental parameters were as follows: the light source was CuKα, the X-ray intensity was 40 kV/40 mA, the scanning mode was Theta-theta, the scanning angle range was 4° to 40°, the step size was 0.05°, and the scanning speed was 0.5 seconds per step.

[4] = after 2 weeks under −20° C., high temperature, high humidity, light, and accelerated conditions

In the case of `CCS(=O)(=O)N1CC(CC#N)(n2cc(-c3nc(Nc4cnn(C)c4)nc4ccsc34)cn2)C1` [Crystal form I], the “weight gain from 0% RH to 95% RH (moisture absorption)” value (from here on “weight gain from 0% RH to 95% RH”) [1] was 3.025%.

For `CCS(=O)(=O)N1CC(CC#N)(n2cc(-c3nc(Nc4cnn(C)c4)nc4ccsc34)cn2)C1` [Crystal form III], the “weight gain from 0% RH to 95% RH” value [1] was 0.4084%, the Appearance ([2]; Accelerated (40° C./75%)) was “Bright yellow” and the Appearance ([2]; High humidity (92.5% RH)) was “Bright yellow”. The Appearance ([2]; High temperature (60° C.)) was “Bright yellow”, the chemical stability [2, 4] was “good chemical stability” and the “physical stability (crystal form conversion)” value [2, 4] was “partial conversion of crystal form III to crystal form II”. For the same compound, the Appearance ([2]; control group, −20° C.) was “Bright yellow”.

In the case of `CCS(=O)(=O)N1CC(CC#N)(n2cc(-c3nc(Nc4cnn(C)c4)nc4ccsc34)cn2)C1` [Crystal form II], the “hygroscopicity (in words)” value ([1]; 0% RH to 95% RH) was “almost no hygroscopicity”, the “weight gain from 0% RH to 95% RH” value [1] was 0.1047% and the Appearance ([2]; Accelerated (40° C./75%)) was “Yellow”. For the same compound, the Appearance ([2]; High humidity (92.5% RH)) was “Yellow”, the Appearance ([2]; High temperature (60° C.)) was “Yellow” and the Appearance ([2]; control group, −20° C.) was “Yellow”. For the same compound, the physicochemical stability ([2]; −20° C., high temperature, high humidity, and accelerated conditions) was “good physicochemical stability”, the “crystal form by XRPD after standing” value ([3]; after 6 days, good solvent / methyl tert-butyl ether) was “remained as crystal form II” and the “crystal form by XRPD after standing” value ([3]; after 8 days, ethyl acetate / n-heptane) was “remained as crystal form II”.
